Consider 14 compounds from US20090099177A1, “PYRIDYL COMPOUNDS” (priority 2006, published 2009).

The target of one assay is T1, human EP3 receptor (Homo sapiens, UniProt P43115).
T1 construct: expressed in transfected cells; host or cells: CHO-K1
T1 sequence (P43115 1-390): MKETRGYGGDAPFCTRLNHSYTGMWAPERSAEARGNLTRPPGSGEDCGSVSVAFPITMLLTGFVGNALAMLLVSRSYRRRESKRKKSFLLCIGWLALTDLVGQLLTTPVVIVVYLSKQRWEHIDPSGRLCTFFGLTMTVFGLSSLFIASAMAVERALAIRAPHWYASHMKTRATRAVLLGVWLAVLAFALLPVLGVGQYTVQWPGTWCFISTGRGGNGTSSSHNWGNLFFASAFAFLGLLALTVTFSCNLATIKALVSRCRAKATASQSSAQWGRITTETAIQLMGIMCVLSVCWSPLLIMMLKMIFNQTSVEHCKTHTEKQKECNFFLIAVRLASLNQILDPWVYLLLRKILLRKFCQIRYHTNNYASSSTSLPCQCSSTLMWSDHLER
Briefly: human EP3 calcium mobilisation assay. As to conditions: human EP3, CHO-K1 cells, antagonism of PGE2; averages of a number of experiments; read-out: functional pKi value (converted). The assay is classed as cell-based. How it is done: (§1) Briefly, the antagonist properties of compounds are assessed by their ability to inhibit the mobilisation of intracellular calcium ([Ca^2+]i) in response to activation of EP1 or EP3 receptors by the natural agonist hormone prostaglandin E2 (PGE2). Increasing concentrations of antagonist reduce the amount of calcium that a given concentration of PGE2 can mobilise. The net effect is to displace the PGE2 concentration-effect curve to higher concentrations of PGE2. The amount of calcium produced is assessed using a calcium-sensitive fluorescent dye such as Fluo-4, AM and a suitable instrument such as a Fluorimetric Imaging Plate Reader (FLIPR). Increasing amounts of [Ca^2+]i produced by receptor activation increase the amount of fluorescence produced by the dye and give rise to an increasing signal. The signal may be detected using the FLIPR instrument and the data generated may be analysed with suitable curve-fitting software.
(§2) The human EP1 or EP3 calcium mobilisation assay (hereafter referred to as ‘the calcium assay’) utilises Chinese hamster ovary-K1 (CHO-K1) cells into which a stable (pCIN; BioTechniques 20 (1996): 102-110) vector containing either EP1 or EP3 cDNA has previously been transfected. Cells are cultured in suitable flasks containing culture medium such as DMEM:F-12 supplemented with 10% v/v foetal calf serum, 2 mM L-glutamine, 0.25 mg/ml geneticin, 100 μM flurbiprofen and 10 μg/ml puromycin.
(§3) For assay, cells are harvested using a proprietary reagent that dislodges cells such as Versene. Cells are re-suspended in a suitable quantity of fresh culture media for introduction into a 384-well plate. Following incubation for 24 hours at 37° C. the culture media is replaced with a medium containing Fluo-4 and the detergent pluronic acid, and a further incubation takes place. Concentrations of compounds are then added to the plate in order to construct concentration-effect curves. This may be performed on the FLIPR in order to assess the agonist properties of the compounds. Concentrations of PGE2 are then added to the plate in order to assess the antagonist properties of the compounds.
(§4) The data so generated may be analysed by means of a computerised curve-fitting routine. The concentration of compound that elicits a half-maximal inhibition of the calcium mobilisation induced by PGE2 (pIC50) may then be estimated.
On the technique in general: A change in cytosolic calcium serves as a functional read-out for many receptors and channels.

The target of a further assay is T2, human EP1 receptor (Homo sapiens, UniProt P34995).
T2 construct: expressed in transfected cells; host or cells: CHO-K1
T2 sequence (P34995 1-402): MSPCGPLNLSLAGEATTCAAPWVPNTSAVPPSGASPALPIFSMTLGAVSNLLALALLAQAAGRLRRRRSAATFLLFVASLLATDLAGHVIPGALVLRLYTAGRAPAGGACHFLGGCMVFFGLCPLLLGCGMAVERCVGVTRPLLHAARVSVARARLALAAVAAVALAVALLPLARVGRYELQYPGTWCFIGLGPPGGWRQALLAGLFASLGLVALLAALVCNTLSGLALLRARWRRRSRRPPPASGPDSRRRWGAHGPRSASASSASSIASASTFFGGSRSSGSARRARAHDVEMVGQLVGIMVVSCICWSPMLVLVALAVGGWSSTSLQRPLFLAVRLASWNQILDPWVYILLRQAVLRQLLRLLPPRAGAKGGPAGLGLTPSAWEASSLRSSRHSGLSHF
In words: human EP1 calcium mobilisation assay. The assay is classed as cell-based. To be noted: for Ki: human EP1, CHO-K1 cells, antagonism of PGE2, averages of a number of experiments, read-out: functional pKi value (converted). On the procedure: as §1, §2, §3, §4

Assay [1] concerns the target T3, human prostanoid EP1 receptor (Homo sapiens, UniProt P34995).
T3 construct: expressed in transfected cells; host or cells: CHO-K1 (membrane fraction)
T3 sequence (P34995 1-402): T2 sequence (P34995 1-402)
In words: Binding assay for the human prostanoid EP1 receptor (competition with [3H]-PGE2). As to conditions: [3H]-PGE2 competition, human EP1, CHO-K1 membranes; averages of a number of experiments; read-out: pIC50 value (converted). On the procedure:
Competition assay using [^3H]-PGE2.
Compound potencies are determined using a radioligand binding assay. In this assay compound potencies are determined from their ability to compete with tritiated prostaglandin E2 ([^3H]-PGE2) for binding to the human EP1 receptor.
This assay utilises Chinese hamster ovary-K1 (CHO-K1) cells into which a stable vector containing the EP1 cDNA has previously been transfected. Cells are cultured in suitable flasks containing culture medium such as DMEM:F-12 supplemented with 10% v/v foetal calf serum, 2 mM L-glutamine, 0.25 mg/ml geneticin, 10 μg/ml puromycin and 10 μM indomethacin.
Cells are detached from the culture flasks by incubation in calcium and magnesium free phosphate buffered saline containing 1 mM disodium ethylenediaminetetraacetic acid (Na2EDTA) and 10 μM indomethacin for 5 min. The cells are isolated by centrifugation at 250×g for 5mins and suspended in an ice cold buffer such as 50 mM Tris, 1 mM Na2EDTA, 140 mM NaCl, 10 μM indomethacin (pH 7.4). The cells are homogenised using a Polytron tissue disrupter (2×10 s burst at full setting), centrifuged at 48,000×g for 20mins and the pellet containing the membrane fraction is washed (optional) three times by suspension and centrifugation at 48,000×g for 20mins. The final membrane pellet is suspended in an assay buffer such as 10 mM 2-[N-morpholino]ethanesulphonic acid, 1 mM Na2EDTA, 10 mM MgCl2 (pH 6). Aliquots are frozen at −80° C. until required.
For the binding assay the cell membranes, competing compounds and [^3H]-PGE2 (3 nM final assay concentration) are incubated in a final volume of 100 μl for 30 min at 30° C. All reagents are prepared in assay buffer. Reactions are terminated by rapid vacuum filtration over GF/B filters using a Brandell cell harvester. The filters are washed with ice cold assay buffer, dried and the radioactivity retained on the filters is measured by liquid scintillation counting in Packard TopCount scintillation counter.
The data are analysed using non linear curve fitting techniques to determine the concentration of compound producing 50% inhibition of specific binding (IC50).

The target in assay [2] is T4, EP1 receptor (Rattus norvegicus, UniProt P70597).
T4 sequence (P70597 1-405): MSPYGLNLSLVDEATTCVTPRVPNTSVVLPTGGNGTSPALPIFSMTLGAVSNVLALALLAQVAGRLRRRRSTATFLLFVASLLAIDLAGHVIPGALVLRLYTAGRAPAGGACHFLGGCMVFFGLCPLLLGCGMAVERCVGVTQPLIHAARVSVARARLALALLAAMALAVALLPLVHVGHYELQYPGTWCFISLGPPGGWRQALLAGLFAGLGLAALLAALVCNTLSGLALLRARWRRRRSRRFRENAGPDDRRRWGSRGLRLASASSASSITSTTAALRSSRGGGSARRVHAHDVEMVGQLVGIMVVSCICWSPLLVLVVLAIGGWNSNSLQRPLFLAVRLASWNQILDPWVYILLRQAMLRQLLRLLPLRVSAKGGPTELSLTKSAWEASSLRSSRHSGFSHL
Details: host or cells: rat, in vivo. As to conditions: chronic constriction injury; cited from earlier work.

The target of assay [3] is T4, EP1 receptor. Details: host or cells: rodent, in vivo. To be noted: rodent, post-operative pain; cited from earlier work.

Where a name gives a salt, the structure may show the parent alone. Where only a bound is given, the exact number is not on record here.

For `CC(C)(C)NC(=O)c1cccc(Cc2cc(Cl)ccc2OCc2ccccc2)n1` [Example 8, 6-({5-Chloro-2-[(phenylmethyl)oxy]phenyl}methyl)-N-(1,1-dimethylethyl)-2-pyridinecarboxamide], the Ki on human EP3 receptor was at most 3160 nM. In addition, at human EP1 receptor (human EP1 calcium mobilisation assay, read-out: pIC50 values (converted)), the IC50 was above 10000 nM.

Consider `CC(C)NC(=O)c1cccc(Cc2cc(Cl)ccc2OCc2ccccc2)n1` [Example 9, 6-({5-Chloro-2-[(phenylmethyl)oxy]phenyl}methyl)-N-(1-methylethyl)-2-pyridinecarboxamide], for which the Ki on human EP3 receptor is at most 1000 nM; at human EP1 receptor it was at most 316 nM.

In the case of `O=C(Nc1cccc(Cc2cc(Cl)ccc2OCc2ccccc2)n1)C1CCOCC1` [Example 14, N-[6-({5-Chloro-2-[(phenylmethyl)oxy]phenyl}methyl)-2-pyridinyl]tetrahydro-2H-pyran-4-carboxamide], the Ki was at most 3160 nM at human EP3 receptor and at most 316 nM on human EP1 receptor.

Regarding `CC(C)COc1ccc(Cl)cc1Cc1cccc(-c2nc3ncccc3[nH]2)n1` [Example 21, 2-[6-({5-Chloro-2-[(2-methylpropyl)oxy]phenyl}methyl)-2-pyridinyl]-1H-imidazo[4,5-b]pyridine hydrochloride], the IC50 in assay [1] is at most 100 nM. In addition, the figures for the Ki at human EP3 receptor and at human EP1 receptor were at most 3160 nM and at most 316 nM, respectively.

Regarding `CC(C)COc1ccc(Cl)cc1Cc1cccc(-c2nc3cc4cnn(C)c4cc3[nH]2)n1` [Example 23, 6-[6-({5-Chloro-2-[(2-methylpropyl)oxy]phenyl}methyl)-2-pyridinyl]-1-methyl-1,5-dihydroimidazo[4,5-f]indazolehydrochloride], the Ki on human EP3 receptor is at most 1000 nM; at human EP1 receptor, at most 316 nM.

`CC(C)COc1ccc(Cl)cc1Cc1cccc(-c2nc3c(ccc4nn[nH]c43)[nH]2)n1` [Example 25, 7-[6-({5-Chloro-2-[(2-methylpropyl)oxy]phenyl}methyl)-2-pyridinyl]-1,6-dihydroimidazo[4,5-e][1,2,3]benzotriazolehydrochloride]: the figures for the Ki at human EP3 receptor and at human EP1 receptor were at most 1000 nM and at most 316 nM, respectively.

On to `Clc1ccc(OCc2ccccc2)c(Cc2cccc(-c3nc4cncnc4[nH]3)n2)c1` [Example 33, 8-[6-({5-Chloro-2-[(phenylmethyl)oxy]phenyl}methyl)-2-pyridinyl]-1H-purinehydrochloride], for which the IC50 in assay [1] is at most 100 nM. For the same compound, the Ki is at most 1000 nM on human EP3 receptor and at most 316 nM at human EP1 receptor.

In the case of `Clc1ccc(OCc2ccccc2)c(Cc2cccc(-c3nc4cc5cn[nH]c5cc4[nH]3)n2)c1` [Example 39, 6-[6-({5-Chloro-2-[(phenylmethyl)oxy]phenyl}methyl)-2-pyridinyl]-1,5-dihydroimidazo[4,5-f]indazolehydrochloride], the IC50 in assay [1] is at most 100 nM. For the same compound, the Ki at human EP3 receptor was at most 3160 nM; on human EP1 receptor, at most 316 nM.

Turning to `Clc1ccc(OCc2ccccc2)c(Cc2cccc(-c3ncc[nH]3)n2)c1` [Example 43, 2-({5-Chloro-2-[(phenylmethyl)oxy]phenyl}methyl)-6-(1H-imidazol-2-yl)pyridine Hydrochloride], in assay [1], the IC50 was at most 100 nM. In addition, the values for the Ki at human EP3 receptor and on human EP1 receptor were at most 1000 nM and at most 316 nM, respectively.

For `CC(C)COc1ccc(Cl)cc1Cc1cccc(-c2nc3ccc(CN4CCCC4)cc3[nH]2)n1` [Example 49, 2-[6-({5-Chloro-2-[(2-methylpropyl)oxy]phenyl}methyl)-2-pyridinyl]-5-(1-pyrrolidinylmethyl)-1H-benzimidazole hydrochloride], the results for the Ki at human EP3 receptor and on human EP1 receptor were at most 3160 nM and at most 10000 nM, respectively.

As for `CC(C)COc1ccc(Cl)cc1Cc1cccc(-c2nc3ccc(CN(C)C)cc3[nH]2)n1` [Example 51, ({2-[6-({5-Chloro-2-[(2-methylpropyl)oxy]phenyl}methyl)-2-pyridinyl]-1H-benzimidazol-5-yl}methyl)dimethylaminehydrochloride], the IC50 in assay [1] was at most 100 nM. Moreover, the Ki at human EP3 receptor was at most 3160 nM; at human EP1 receptor it was at most 316 nM.

In the case of `CC(C)(C)OC(=O)Nc1cccc(Cc2cc(Cl)ccc2OCc2ccc(Cl)cc2F)n1` [Example 61, 1,1-Dimethylethyl {6-[(5-chloro-2-{[(4-chloro-2-fluorophenyl)methyl]oxy}phenyl)methyl]-2-pyridinyl}carbamate Hydrochloride], in assay [1], the IC50 is at most 100 nM. On human EP1 receptor, the Ki was at most 316 nM.

For the compound `CC(C)COc1ccc(Cl)cc1Cc1cccc(NC(=O)c2ccc(CO)cc2)n1` [Example 62, N-[6-({5-Chloro-2-[(2-methylpropyl)oxy]phenyl}methyl)-2-pyridinyl]-4-(hydroxymethyl)benzamide], in assay [1], the IC50 was at most 100 nM. In addition, the Ki on human EP1 receptor is at most 10000 nM.

As for `Cc1cc(Cl)ccc1S(=O)(=O)NC[C@H]1C2CCC(CC2)[C@@H]1/C=C\CCCC(=O)O` [ONO-8711], the hyperalgesia and allodynia entry on EP1 receptor [2] was “reduces hyperalgesia and allodynia”. The mechanical hyperalgesia result on EP1 receptor [3] was “inhibits mechanical hyperalgesia”.
